Measurements as given in patent US11000033B2, “Ketone or oxime compound, and herbicide” (NISSAN CHEMICAL CORPORATION, priority 2014, dated 2021).

Tests used:
Assay type in all cases: in vivo
[1] = system: Echinochloa crus-galli var. crus-galli; assay: Test Example 3: herbicidal effect by foliage application, Wagner pot (symbol H); details: application herbicide amount 320 g/ha
Protocol: (§1) Herbicidal Effect Test by Foliage Application
(§2) After alluvial soil was placed into 1/10000 are of Wagner pot, water was poured and mixed to form a submerged condition having a water depth of 0.1 cm to 0.5 cm. Seeds of Echinochloa crus-galli var. crus-galli, Leptochloa chinensis, Cyperus difformis, and rice were sowed and the pot was placed in the greenhouse of 25° C. to 30° C. to grow the plants. After the plants were grown for 14 days, the emulsion agent of the compound of the present invention prepared in accordance with Formulation Example 2 was diluted with water so as to be a predetermined herbicide amount and the diluted emulsion agent was uniformly applied to a foliage part with a small-size spray. 3 weeks later from the herbicide application, the effect to each plant was investigated in accordance with the criteria of Test Example 1.

Monochoria vaginalis = assay: Test Example 2: herbicidal activity, application during weed generation in submerged conditions (symbol C); details: Table 23; application herbicide amount 320 g/ha; grade 0-5 by criteria of Test Example 1
Protocol: (§3) Herbicidal Activity Test by Application During Weed Generation in Submerged Conditions
(§4) After alluvial soil was placed into 1/10000 are of Wagner pot, water was poured and mixed to form a submerged condition having a water depth of 4 cm. Seeds of Echinochloa oryzacola Vasing., Scirpus juncoides, and Monochoria vaginalis were sowed in a mixed manner in the above pot and the pot was placed in the greenhouse of 25° C. to 30° C. to grow the plants. When Echinochloa oryzacola Vasing., Scirpus juncoides, and Monochoria vaginalis were grown to one leaf stage to two leaf stage, the emulsion agent of the compound of the present invention prepared in accordance with Formulation Example 2 was diluted with water so as to be a predetermined herbicide amount and the diluted emulsion agent was applied to the surface of the water. 3 weeks later from the herbicide application, the effect to each plant was investigated in accordance with the criteria of Test Example 1.

[2] = system: directly sowed rice plant; assay: Test Example 3: effect on crop by foliage application, Wagner pot (symbol b); details: application herbicide amount 320 g/ha
Protocol: as §1
After alluvial soil was placed into 1/10000 are of Wagner pot, water was poured and mixed to form a submerged condition having a water depth of 0.1 cm to 0.5 cm. Seeds of Echinochloa crus-galli var. crus-galli, Leptochloa chinensis, Cyperus difformis, and rice were sowed and the pot was placed in the greenhouse of 25° C. to 30° C. to grow the plants.

Scirpus juncoides [3] = assay: Test Example 1: herbicidal activity, application before weed generation in submerged conditions (symbol B); details: application herbicide amount 320 g/ha
Description: (§5) Herbicidal Activity Test by Application Before Weed Generation in Submerged Conditions
as §4, with “thereafter 2.5” for “the pot was placed in the greenhouse of 25° C. to 30° C. to grow the plants. When Echinochloa oryzacola Vasing., Scirpus juncoides, and Monochoria vaginalis were grown to one”, “rice plant seedlings were transplanted thereto. On the day of sowing seeds,” for “to two leaf stage,”, “water. The pot was placed in a greenhouse of 25° C. to 30° C. to grow plant.” for “water.”, “following criteria.” for “criteria of Test Example 1.”
(§6) 5 Herbicidal ratio of 90% or more (almost completely withered)
(§7) 4 Herbicidal ratio of 70% or higher and lower than 90%
(§8) 3 Herbicidal ratio of 40% or higher and lower than 70%
(§9) 2 Herbicidal ratio of 20% or higher and lower than 40%
(§10) 1 Herbicidal ratio of 5% or higher and lower than 20%
(§11) 0 Herbicidal ratio of 5% or lower (almost no effect)

[4] = system: Echinochloa oryzacola Vasing.; assay: Test Example 1: herbicidal activity, application before weed generation in submerged conditions (symbol A); details: application herbicide amount 320 g/ha
Description: as §5
as §4, with “thereafter 2.5” for “the pot was placed in the greenhouse of 25° C. to 30° C. to grow the plants. When Echinochloa oryzacola Vasing., Scirpus juncoides, and Monochoria vaginalis were grown to one”, “rice plant seedlings were transplanted thereto. On the day of sowing seeds,” for “to two leaf stage,”, “water. The pot was placed in a greenhouse of 25° C. to 30° C. to grow plant.” for “water.”, “following criteria.” for “criteria of Test Example 1.”
as §6, §7, §8, §9, §10, §11

[5] = system: Echinochloa oryzacola Vasing.; assay: Test Example 2: herbicidal activity, application during weed generation in submerged conditions (symbol A); details: Table 23; application herbicide amount 320 g/ha; grade 0-5 by criteria of Test Example 1
Protocol: as §3, §4

Leptochloa chinensis = assay: Test Example 3: herbicidal effect by foliage application, Wagner pot (symbol D); details: application herbicide amount 320 g/ha
Protocol: as §1, §2

Scirpus juncoides [6] = assay: Test Example 2: herbicidal activity, application during weed generation in submerged conditions (symbol B); details: Table 23; application herbicide amount 320 g/ha; grade 0-5 by criteria of Test Example 1
Protocol: as §3, §4

transplanted rice plant = assay: Test Example 1: effect on crop, application before weed generation in submerged conditions (symbol a); details: application herbicide amount 320 g/ha
Protocol: as §5
After alluvial soil was placed into 1/10000 are of Wagner pot, water was poured and mixed to form a submerged condition having a water depth of 4 cm. Seeds of Echinochloa oryzacola Vasing., Scirpus juncoides, and Monochoria vaginalis were sowed in a mixed manner in the above pot and thereafter 2.5 leaf stage rice plant seedlings were transplanted thereto. […] The pot was placed in a greenhouse of 25° C. to 30° C. to grow plant. 3 weeks later from the herbicide application, the effect to each plant was investigated in accordance with the following criteria.
as §6, §7, §8, §9, §10, §11

Cyperus difformis = assay: Test Example 3: herbicidal effect by foliage application, Wagner pot (symbol E); details: application herbicide amount 320 g/ha
Protocol: as §1, §2

With `CON=C(C)CC1CC(O)=C(c2c(C)cc(SC)cc2C)C1=O` (stereo not shown) [6-024] the “herbicidal effect on H (Echinochloa crus-galli var. crus-galli), grade 0-5” value [1] was 3 (Herbicidal ratio of 40% or higher and lower than 70%), the “Herbicidal effect grade, C: Monochoria vaginalis” value (Monochoria vaginalis) was 0 (Herbicidal ratio of 5% or lower (almost no effect)) and the “effect on crop b (directly sowed rice plant), grade 0-5” value [2] was 3 (Herbicidal ratio of 40% or higher and lower than 70%). The “Herbicidal effect grade, B: Scirpus juncoides” value (Scirpus juncoides [3]) was 2 (Herbicidal ratio of 20% or higher and lower than 40%), the “Herbicidal effect grade, A: Echinochloa oryzacola Vasing.” value [4] was 3 (Herbicidal ratio of 40% or higher and lower than 70%) and the “Herbicidal effect grade, A: Echinochloa oryzacola Vasing.” value [5] was 1 (Herbicidal ratio of 5% or higher and lower than 20%). For the same compound, the “herbicidal effect on D (Leptochloa chinensis), grade 0-5” value (Leptochloa chinensis) was 2 (Herbicidal ratio of 20% or higher and lower than 40%), the “Herbicidal effect grade, B: Scirpus juncoides” value (Scirpus juncoides [6]) was 0 (Herbicidal ratio of 5% or lower (almost no effect)) and the “Effect grade on crop, a: transplanted rice plant” value (transplanted rice plant) was 3 (Herbicidal ratio of 40% or higher and lower than 70%). The “herbicidal effect on E, grade 0-5” value (Cyperus difformis) was 3 (Herbicidal ratio of 40% or higher and lower than 70%).
